Data as given in patent US20250311727A1, “SUBSTITUTED 2-AMINOAZINES AND SALTS THEREOF, AND USE THEREOF AS HERBICIDAL ACTIVE SUBSTANCES” (BAYER AKTIENGESELLSCHAFT, priority 2022, published 2025).

Key:
Type in all cases: in vivo
Kochia scoparia [1] = assay: Post-emergence herbicidal efficacy at 320 g/ha, KCHSC; conditions: rated visually after about 3 weeks vs untreated controls, 100% = plants have died
From the text: (§1) Unwanted plants/weeds: • ABUTH: Abutilon theophrasti • ALOMY: Alopecurus myosuroides • AMARE: Amaranthus retroflexus • DIGSA: Digitaria sanguinalis • ECHCG: Echinochloa crus-galli • KCHSC: Kochia scoparia • LOLRI: Lolium rigidum • MATIN: Matricaria inodora • POAAN: Poa annua • POLCO: Polygonum convolvulus • SETVI: Setaria viridis • STEME: Stellaria media • VERPE: Veronica persica • VIOTR: Viola tricolor A. Post-Emergence Herbicidal Efficacy at 320 g/ha
(§2) Seeds of mono- and dicotyledonous weed plants were placed in plastic pots in sandy loam soil (doubly sown with in each case one species of mono- or dicotyledonous weed plants per pot), covered with soil and cultivated in a greenhouse under controlled growth conditions. 2 to 3 weeks after sowing, the test plants were treated at the one-leaf stage. The compounds of the invention, formulated in the form of wettable powders (WP) or as emulsion concentrates (EC), were applied to the green parts of the plants as aqueous suspension or emulsion with addition of 0.5% additive at a water application rate equivalent to 600 litres per hectare. After the test plants had been kept in the greenhouse under optimum growth conditions for about 3 weeks, the activity of the preparations was rated visually in comparison to untreated controls.
(§3) For example, 100% activity=the plants have died, 0% activity=like control plants.
(§4) Tables A1 to A10 below show the effects of selected compounds of the general formula (I) according to Table 1 on various harmful plants and at an application rate corresponding to 320 g/ha, which were obtained by the trial procedure specified above.

Poa annua [2] = assay: Post-emergence herbicidal efficacy at 320 g/ha, POAAN; conditions: rated visually after about 3 weeks vs untreated controls, 100% = plants have died
From the text: as §1, §2, §3, §4

Veronica persica [3] = assay: Post-emergence herbicidal efficacy at 320 g/ha, VERPE; conditions: rated visually after about 3 weeks vs untreated controls, 100% = plants have died
From the text: as §1, §2, §3, §4

Amaranthus retroflexus [4] = assay: Post-emergence herbicidal efficacy at 320 g/ha, AMARE; conditions: rated visually after about 3 weeks vs untreated controls, 100% = plants have died
From the text: as §1, §2, §3, §4

Stellaria media [5] = assay: Pre-emergence herbicide efficacy at 320 g/ha, STEME; conditions: scored visually after about 3 weeks vs untreated controls, 100% = plants have died
From the text: as §1
(§5) Seeds of mono- and dicotyledonous weed plants were placed in plastic pots in sandy loam soil (doubly sown with one species each of mono- or dicotyledonous weed plants per pot) and covered with soil. The compounds of the invention, formulated in the form of wettable powders (WP) or as emulsion concentrates (EC), were then applied to the surface of the covering soil as aqueous suspension or emulsion with addition of 0.5% additive at a water application rate of 600 litres per hectare (converted). After the treatment, the pots were placed in a greenhouse and kept under good growth conditions for the test plants. After about 3 weeks, the efficacy of the preparations was scored visually in comparison with untreated controls as percentages.
as §3
(§6) Tables C1 to C12 below show the effects of selected compounds of the general formula (I) according to Table 1 on various harmful plants and at an application rate corresponding to 320 g/ha, which were obtained by the trial procedure specified above.

Amaranthus retroflexus [6] = assay: Pre-emergence herbicide efficacy at 320 g/ha, AMARE; conditions: scored visually after about 3 weeks vs untreated controls, 100% = plants have died
From the text: as §1, §5, §3, §6

Poa annua [7] = assay: Pre-emergence herbicide efficacy at 320 g/ha, POAAN; conditions: scored visually after about 3 weeks vs untreated controls, 100% = plants have died
From the text: as §1, §5, §3, §6

Matricaria inodora = assay: Pre-emergence herbicide efficacy at 320 g/ha, MATIN; conditions: scored visually after about 3 weeks vs untreated controls, 100% = plants have died
From the text: as §1, §5, §3, §6

Stellaria media [8] = assay: Post-emergence herbicidal efficacy at 320 g/ha, STEME; conditions: rated visually after about 3 weeks vs untreated controls, 100% = plants have died
From the text: as §1, §2, §3, §4

Setaria viridis [9] = assay: Pre-emergence herbicide efficacy at 320 g/ha, SETVI; conditions: scored visually after about 3 weeks vs untreated controls, 100% = plants have died
From the text: as §1, §5, §3, §6

Veronica persica [10] = assay: Pre-emergence herbicide efficacy at 320 g/ha, VERPE; conditions: scored visually after about 3 weeks vs untreated controls, 100% = plants have died
From the text: as §1, §5, §3, §6

Digitaria sanguinalis [11] = assay: Pre-emergence herbicide efficacy at 320 g/ha, DIGSA; conditions: scored visually after about 3 weeks vs untreated controls, 100% = plants have died
From the text: as §1, §5, §3, §6

Digitaria sanguinalis [12] = assay: Post-emergence herbicidal efficacy at 320 g/ha, DIGSA; conditions: rated visually after about 3 weeks vs untreated controls, 100% = plants have died
From the text: as §1, §2, §3, §4

Kochia scoparia [13] = assay: Pre-emergence herbicide efficacy at 320 g/ha, KCHSC; conditions: scored visually after about 3 weeks vs untreated controls, 100% = plants have died
From the text: as §1, §5, §3, §6

Echinochloa crus-galli [14] = assay: Post-emergence herbicidal efficacy at 320 g/ha, ECHCG; conditions: rated visually after about 3 weeks vs untreated controls, 100% = plants have died
From the text: as §1, §2, §3, §4

Abutilon theophrasti = assay: Post-emergence herbicidal efficacy at 320 g/ha, ABUTH; conditions: rated visually after about 3 weeks vs untreated controls, 100% = plants have died
From the text: as §1, §2, §3, §4

Echinochloa crus-galli [15] = assay: Pre-emergence herbicide efficacy at 320 g/ha, ECHCG; conditions: scored visually after about 3 weeks vs untreated controls, 100% = plants have died
From the text: as §1, §5, §3, §6

Setaria viridis [16] = assay: Post-emergence herbicidal efficacy at 320 g/ha, SETVI; conditions: rated visually after about 3 weeks vs untreated controls, 100% = plants have died
From the text: as §1, §2, §3, §4

Kochia scoparia [17] = assay: Pre-emergence herbicide efficacy at 80 g/ha, KCHSC; conditions: scored visually after about 3 weeks vs untreated controls, 100% = plants have died
From the text: as §1
(§7) Seeds of monocotyledonous and dicotyledonous weed plants and crop plants were placed in plastic or organic planting pots and covered with soil. The compounds of the invention, formulated in the form of wettable powders (WP) or as emulsion concentrates (EC), were then applied to the surface of the covering soil as aqueous suspension or emulsion with addition of 0.5% additive at a water application rate equivalent to 600 l/ha. After the treatment, the pots were placed in a greenhouse and kept under good growth conditions for the test plants. After about 3 weeks, the efficacy of the preparations was scored visually in comparison with untreated controls as percentages. For example, 100% activity=the plants have died, 0% activity=like control plants.
(§8) Tables D1 to D12 below show the effects of selected compounds of the general formula (I) according to Table 1 on various harmful plants and an application rate corresponding to 80 g/ha, which were obtained by the experimental procedure mentioned above.

Amaranthus retroflexus [18] = assay: Post-emergence herbicidal efficacy at 80 g/ha, AMARE; conditions: rated visually after about 3 weeks vs untreated controls, 100% = plants have died
From the text: as §1
(§9) Seeds of monocotyledonous and dicotyledonous weeds and crop plants were placed in sandy loam in plastic or organic planting pots, covered with soil and cultivated in a greenhouse under controlled growth conditions. 2 to 3 weeks after sowing, the test plants were treated at the one-leaf stage. The compounds of the invention, formulated in the form of wettable powders (WP) or as emulsion concentrates (EC), were then sprayed onto the green parts of the plants as aqueous suspension or emulsion with addition of 0.5% additive at a water application rate of 600 l/ha (converted). After the test plants had been kept in the greenhouse under optimum growth conditions for about 3 weeks, the activity of the preparations was rated visually in comparison to untreated controls. For example, 100% activity=the plants have died, 0% activity=like control plants.
(§10) Tables B1 to B11 below show the effects of selected compounds of the general formula (I) according to Table 1 on various harmful plants and an application rate corresponding to 80 g/ha, which were obtained by the experimental procedure mentioned above.

Kochia scoparia [19] = assay: Post-emergence herbicidal efficacy at 80 g/ha, KCHSC; conditions: rated visually after about 3 weeks vs untreated controls, 100% = plants have died
From the text: as §1, §9, §10

Digitaria sanguinalis [20] = assay: Pre-emergence herbicide efficacy at 80 g/ha, DIGSA; conditions: scored visually after about 3 weeks vs untreated controls, 100% = plants have died
From the text: as §1, §7, §8

Veronica persica [21] = assay: Post-emergence herbicidal efficacy at 80 g/ha, VERPE; conditions: rated visually after about 3 weeks vs untreated controls, 100% = plants have died
From the text: as §1, §9, §10

Amaranthus retroflexus [22] = assay: Pre-emergence herbicide efficacy at 80 g/ha, AMARE; conditions: scored visually after about 3 weeks vs untreated controls, 100% = plants have died
From the text: as §1, §7, §8

Setaria viridis [23] = assay: Pre-emergence herbicide efficacy at 80 g/ha, SETVI
From the text: as §1, §7, §8

Viola tricolor = assay: Pre-emergence herbicide efficacy at 80 g/ha, VIOTR
From the text: as §1, §7, §8

Compound | Post-emergence efficacy at 320 g/ha against KCHSC in % (Kochia scoparia [1]) | Post-emergence efficacy at 320 g/ha against VERPE in % (Veronica persica [3]) | Post-emergence efficacy at 320 g/ha against AMARE in % (Amaranthus retroflexus [4]) | Pre-emergence efficacy at 320 g/ha against STEME in % (Stellaria media [5]) | Pre-emergence efficacy at 320 g/ha against AMARE in % (Amaranthus retroflexus [6]) | Pre-emergence efficacy at 320 g/ha against POAAN in % (Poa annua [7]) | Pre-emergence efficacy at 320 g/ha against MATIN in % (Matricaria inodora) | Post-emergence efficacy at 320 g/ha against STEME in % (Stellaria media [8]) | Pre-emergence efficacy at 320 g/ha against SETVI in % (Setaria viridis [9]) | Pre-emergence efficacy at 320 g/ha against VERPE in % (Veronica persica [10]) | Pre-emergence efficacy at 320 g/ha against DIGSA in % (Digitaria sanguinalis [11]) | Pre-emergence efficacy at 320 g/ha against KCHSC in % (Kochia scoparia [13]) | Post-emergence efficacy at 320 g/ha against ABUTH in % (Abutilon theophrasti) | also measured
FC(F)(F)CCCCc1ccccc1Nc1ncc(Cl)cn1 [Example 1-2] | 90% | 100% | 100% |  |  |  |  |  |  |  |  |  |  | Post-emergence efficacy at 320 g/ha against POAAN in % (Poa annua [2]): 90%
N#Cc1cccc(Nc2ncc(Cl)cn2)c1Cc1ccc(F)cc1 [Example 1-23] |  | 100% | 100% | 90% | 100% | 100% | 100% | 100% | 100% | 90% | 90% |  |  | Post-emergence efficacy at 320 g/ha against POAAN in % (Poa annua [2]): 100%
N#Cc1cccc(Nc2ncc(Cl)cn2)c1-c1ccc(F)c(F)c1 [Example 1-29] | 100% | 100% | 100% |  | 100% |  |  | 90% |  |  |  |  |  | Post-emergence efficacy at 320 g/ha against DIGSA in % (Digitaria sanguinalis [12]): 90%
N#Cc1cccc(Nc2ncc(F)cn2)c1-c1ccc(F)c(F)c1 [Example 1-30] | 100% | 100% | 100% | 100% | 100% | 90% | 90% | 100% | 100% | 100% | 100% | 90% |  | 
N#Cc1cccc(Nc2ncccn2)c1-n1cc(C(F)(F)F)cn1 [Example 1-40] |  | 90% | 90% |  | 100% |  | 90% |  |  |  |  | 90% |  | 
N#Cc1cnc(Nc2cccc(C#N)c2-n2cc(C(F)(F)F)cn2)nc1 [Example 1-42] | 90% | 90% | 100% | 90% | 90% |  | 100% |  | 90% |  | 100% | 90% |  | 
Fc1cccc(Nc2ncc(Cl)cn2)c1-n1cc(C(F)(F)F)cn1 [Example 1-47] |  | 90% | 90% | 90% | 100% | 100% |  | 90% | 100% | 100% | 90% |  | 90% | Post-emergence efficacy at 320 g/ha against ECHCG in % (Echinochloa crus-galli [14]): 90%; Post-emergence efficacy at 320 g/ha against DIGSA in % (Digitaria sanguinalis [12]): 90%; Pre-emergence efficacy at 320 g/ha against ECHCG in % (Echinochloa crus-galli [15]): 100%; Post-emergence efficacy at 320 g/ha against SETVI in % (Setaria viridis [16]): 90%
Clc1cnc(Cc2ccccc2Nc2ncc(Cl)cn2)nc1 [Example 1-51] |  |  |  |  |  |  |  |  |  |  |  |  |  | Pre-emergence efficacy at 80 g/ha against KCHSC in % (Kochia scoparia [17]): 100%; Post-emergence efficacy at 80 g/ha against AMARE in % (Amaranthus retroflexus [18]): 100%; Post-emergence efficacy at 80 g/ha against KCHSC in % (Kochia scoparia [19]): 100%; Pre-emergence efficacy at 80 g/ha against DIGSA in % (Digitaria sanguinalis [20]): 80%; Post-emergence efficacy at 80 g/ha against VERPE in % (Veronica persica [21]): 80%; Pre-emergence efficacy at 80 g/ha against AMARE in % (Amaranthus retroflexus [22]): 100%
Cc1cnn(-c2c(C#N)cccc2Nc2ncc(F)cn2)c1 [Example 1-67] | 90% | 100% | 100% | 100% | 100% | 90% |  | 100% | 100% | 90% |  | 100% | 90% | Post-emergence efficacy at 80 g/ha against AMARE in % (Amaranthus retroflexus [18]): 100%; Post-emergence efficacy at 80 g/ha against KCHSC in % (Kochia scoparia [19]): 90%; Post-emergence efficacy at 80 g/ha against VERPE in % (Veronica persica [21]): 90%; Pre-emergence efficacy at 320 g/ha against ECHCG in % (Echinochloa crus-galli [15]): 100%; Pre-emergence efficacy against SETVI (Setaria viridis [23]): 100%; Pre-emergence efficacy at 80 g/ha against AMARE in % (Amaranthus retroflexus [22]): 100%; Pre-emergence efficacy against VIOTR (Viola tricolor): 90%
COCc1cnn(-c2c(C#N)cccc2Nc2ncc(Cl)cn2)c1 [Example 1-68] | 100% | 100% | 100% |  | 100% |  |  | 100% |  | 90% | 100% | 100% | 90% | Post-emergence efficacy at 320 g/ha against SETVI in % (Setaria viridis [16]): 90%
